Like-named read-outs stand apart in the source and are kept apart here.

For the experiment, the target named is T1, HGFR (Homo sapiens, UniProt P08581).
T1 construct: purchased Upstate 14-526
The experiment is described as follows: HGFR continuous-coupled spectrophotometric assay. The class given is biochemical. The note with it: for inhibition at 1 µM: Table 8, library procedure 43; for inhibition at 1 µM / inhibition at 1 pM: read-out: % Inhibition (percent c-MET inhibition); for inhibition at 0.05 µM: at 50 nM, Table 5, library procedure 40, read-out: % inhibition (percent c-MET inhibition).

The mark [1] stands for this setting: Table 3, column 'Ki (μM) or I (%)': cells without % sign, read-out: Ki.
The mark [2] stands for this setting: cells prefixed Ki, read-out: Met Ki.

T1 sequence (P08581 974-1390 limits assumed): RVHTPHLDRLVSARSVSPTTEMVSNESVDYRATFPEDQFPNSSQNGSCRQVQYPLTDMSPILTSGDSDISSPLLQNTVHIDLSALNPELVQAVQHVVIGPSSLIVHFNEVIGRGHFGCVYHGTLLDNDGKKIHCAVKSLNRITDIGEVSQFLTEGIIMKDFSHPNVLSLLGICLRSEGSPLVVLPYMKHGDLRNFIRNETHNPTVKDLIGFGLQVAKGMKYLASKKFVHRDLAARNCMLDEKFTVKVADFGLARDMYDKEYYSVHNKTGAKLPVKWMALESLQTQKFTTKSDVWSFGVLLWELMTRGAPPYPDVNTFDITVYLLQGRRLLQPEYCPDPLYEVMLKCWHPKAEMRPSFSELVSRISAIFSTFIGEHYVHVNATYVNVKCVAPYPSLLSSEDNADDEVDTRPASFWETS

`CC1CN(C(=O)c2ccc(-c3cnc(N)c(OCc4ccc(-c5csnn5)cc4)c3)cc2)CC(C)N1` (stereo not drawn): the inhibition at 1 µM is 17%.

As to `CCN(CC)C(=O)C1CCCN(C(=O)c2ccc(-c3cnc(N)c(OC(C)c4c(Cl)ccc(F)c4Cl)c3)cc2)C1` [Example L-44], the inhibition at 0.05 µM is 55%.

As for `CC(Oc1cc(-c2ccc(C(=O)NCCO)cc2)cnc1N)c1c(Cl)ccc(F)c1Cl` [Example L-106], the inhibition at 0.05 µM amounted to 89%.

As for `Cn1ccnc1SCC1(O)CCCN(C(=O)c2cnc(N)c(OCc3c(Cl)cccc3Cl)c2)CC1` [Example L-351], the inhibition at 1 pM (Table 6, library procedure 41) stood at 35%.

As to `CC(Oc1cc(-c2ccc(C(=O)NCC(c3cccnc3)N(C)C)cc2)cnc1N)c1c(Cl)ccc(F)c1Cl` [Example L-159], the inhibition at 0.05 µM came out at 78%.

On to `CC(=O)Nc1nc(COc2cc(-c3ccc(C(=O)N4CCC(N5CCCC5)CC4)cc3)cnc2N)cs1`, for which the inhibition at 1 pM (Table 7, library procedure 42) amounted to 9%.

On to `CN1CCN(CCCNC(=O)c2cnc(N)c(OCc3c(Cl)cccc3Cl)c2)CC1` [Example L-179], for which the inhibition at 1 pM (Table 6, library procedure 41) was found to be 24%.

For `CC(Oc1cc(-c2ccc(C(=O)N3CCC(O)(c4ccccc4)CC3)cc2)cnc1N)c1c(Cl)ccc(F)c1Cl` [Example L-28], the inhibition at 0.05 µM turned out to be 64%.

On to `CC(Oc1cc(-c2ccc(C(=O)NCC3CC3)cc2)cnc1N)c1c(Cl)ccc(F)c1Cl` [Example L-122], for which the inhibition at 0.05 µM was 61%.

As to `Nc1ncc(C(=O)N2CCC3(CC2)CC(N2CCC(O)CC2)CO3)cc1OCc1c(Cl)cccc1Cl` [Example L-320], under “Table 6, library procedure 41”, the inhibition at 1 pM is 28%.

`CC1CN(C(=O)c2ccc(-c3cnc(N)c(OCc4cccc(C#N)c4)c3)cc2)CC(C)N1` (stereo not drawn): the inhibition at 1 µM amounted to 11%.

Turning to `Nc1ncc(-c2ccc(C(=O)N3CCC(N4CCCC4)CC3)cc2)cc1OCc1cc(-c2ccc(Cl)cc2)no1`, the inhibition at 1 pM (Table 7, library procedure 42) is 23%.

For the compound `CC(Oc1cc(-c2ccc(C(=O)NCCC3CCOCC3)cc2)cnc1N)c1c(Cl)ccc(F)c1Cl` [Example L-162], the inhibition at 0.05 µM is 66%.

Consider `CC(Oc1cc(-c2ccc(C(=O)N3CCOCC3)cc2)cnc1N)c1c(Cl)ccc(F)c1Cl` (stereo not drawn) [Example I-568, (4-{6-Amino-5-[1-(2,6-dichloro-3-fluoro-phenyl)-ethoxy]-pyridin-3-yl}-phenyl)-morpholin-4-yl-methanone], for which the Ki under setting [1] stood at 0.0525 µM.

`CC(Oc1cc(-c2ccc(C(=O)N3CCN(C(C)C)CC3)cc2)cnc1N)c1c(Cl)ccc(F)c1Cl` [Example L-134]: the inhibition at 0.05 µM came to 76%.

Take `Nc1ncc(C(=O)NCCOc2ccccc2)cc1OCc1c(Cl)cccc1Cl` [Example L-242]: the inhibition at 1 pM (Table 6, library procedure 41) is 66%.

For the compound `CC(Oc1cc(-c2ccc(F)c(C#N)c2)cnc1N)c1c(Cl)ccc(F)c1Cl` (stereo not drawn) [Example I-544, 5-{6-Amino-5-[1-(2,6-dichloro-3-fluoro-phenyl)-ethoxy]-pyridin-3-yl}-2-fluoro-benzonitrile], the inhibition constant Ki under setting [1] turned out to be 0.091 µM.

Regarding `CC(C)CNC(=O)c1ccc(Cl)c(CNC(=O)c2cnc(N)c(OCc3c(Cl)cccc3Cl)c2)c1` [Example L-352], the inhibition at 1 pM (Table 6, library procedure 41) was 47%.

For the compound `Nc1ncc(C(=O)NCCc2ccncc2)cc1OCc1c(Cl)cccc1Cl` [Example L-240], the inhibition at 1 pM (Table 6, library procedure 41) amounted to 30%.

Turning to `Cn1nc(CC2CC2)nc1COc1cc(-c2ccc(C(=O)N3CCC(N4CCCC4)CC3)cc2)cnc1N`, the inhibition at 1 pM (Table 7, library procedure 42) was found to be 7%.

Turning to `CC1CN(C(=O)c2ccc(-c3cnc(N)c(OCc4ccc(Cl)c(Cl)c4)c3)cc2)CC(C)N1` (stereo not drawn), the inhibition at 1 µM was determined as 29%.

On to `C#CCCN1CCN(C(=O)c2ccc(-c3cnc(N)c(OC(C)c4c(Cl)ccc(F)c4Cl)c3)cc2)CC1` [Example L-157], for which the inhibition at 0.05 µM stood at 77%.

Regarding `Nc1ncc(-c2ccc(C(=O)N3CCC(N4CCCC4)CC3)cc2)cc1OCc1cccc(C(=O)NC2CCN(Cc3ccccc3)C2)c1` (stereo not drawn), under “Table 7, library procedure 42”, the inhibition at 1 pM stood at 13%.

Take `CCN(CC)CC1(O)CCN(C(=O)c2cnc(N)c(OCc3c(Cl)cccc3Cl)c2)CC1` [Example L-319]: the inhibition at 1 pM (Table 6, library procedure 41) is 71%.

On to `Nc1ncc(C(=O)N2CCCC2c2ccncc2)cc1OCc1c(Cl)cccc1Cl` [Example L-290], for which the inhibition at 1 pM (Table 6, library procedure 41) is 19%.

Regarding `Nc1ncc(-c2ccc(C(=O)N3CCC(N4CCCC4)CC3)cc2)cc1OCc1nsc(Cl)n1`, the inhibition at 1 pM (Table 7, library procedure 42) was determined as 5%.

On to `COC(=O)COc1ccc(-c2cnc(N)c(OC(C)c3c(Cl)ccc(F)c3Cl)c2)cc1` (stereo not drawn) [Example I-475, (4-{6-Amino-5-[1-(2,6-dichloro-3-fluoro-phenyl)-ethoxy]-pyridin-3-yl}-phenoxy)-acetic acid methyl ester], for which the Ki under setting [2] was 0.2 µM.

For the compound `Nc1ncc(C(=O)NCCc2c[nH]c3ccc(Cl)cc23)cc1OCc1c(Cl)cccc1Cl` [Example L-212], the inhibition at 1 pM (Table 6, library procedure 41) is 36%.

Consider `C[C@H](Oc1cc(-c2ccc(C(=O)N[C@H]3CC[C@H](O)CC3)cc2)cnc1N)c1c(Cl)ccc(F)c1Cl` [Example L-51], for which the inhibition at 0.05 µM amounted to 73%.

Turning to `Nc1ncc(C(=O)NCCO)cc1OCc1c(Cl)cccc1Cl` [Example L-239], where the note is “Table 6, library procedure 41”, the inhibition at 1 pM turned out to be 34%.

`Nc1ncc(C(=O)NCc2ccc(O)cc2)cc1OCc1c(Cl)cccc1Cl` [Example L-195]: the inhibition at 1 pM (Table 6, library procedure 41) turned out to be 37%.

With `Nc1ncc(-c2ccc(C(=O)N3CCC(N4CCCC4)CC3)cc2)cc1OCc1csc(-c2ccc(C(F)(F)F)cc2)n1`, the inhibition at 1 pM (Table 7, library procedure 42) is 21%.

Regarding `Nc1ncc(C(=O)NCc2ccccc2OC(F)(F)F)cc1OCc1c(Cl)cccc1Cl` [Example L-200], the inhibition at 1 pM (Table 6, library procedure 41) worked out at 31%.

For the compound `CC(C)Oc1c(F)cccc1COc1cc(Br)cnc1N` [Example I-472, 5-Bromo-3-(3-fluoro-2-isopropoxy-benzyloxy)-pyridin-2-ylamine], the Ki under setting [2] came to 12.1 µM.

`CC(Oc1cc(-c2ccc(C(=O)NCCCN3CCCC3)cc2)cnc1N)c1c(Cl)ccc(F)c1Cl` [Example L-88]: the inhibition at 0.05 µM was 90%.

As for `CC(Oc1cc(-c2ccc(C(=O)NCCCc3c[nH]nc3O)cc2)cnc1N)c1c(Cl)ccc(F)c1Cl` [Example L-150], the inhibition at 0.05 µM was found to be 81%.

On to `CC(Oc1cc(-c2ccc(C(=O)NCCCN(C)C)cc2)cnc1N)c1c(Cl)ccc(F)c1Cl` [Example L-16], for which the inhibition at 0.05 µM stood at 83%.

`Cc1cnc(CNC(=O)c2ccc(-c3cnc(N)c(OC(C)c4c(Cl)ccc(F)c4Cl)c3)cc2)cn1` [Example L-57]: the inhibition at 0.05 µM amounted to 76%.

Take `CC(Oc1cc(-c2ccc(C(=O)N(C)CCC#N)cc2)cnc1N)c1c(Cl)ccc(F)c1Cl` [Example L-78]: the inhibition at 0.05 µM came out at 68%.

As for `CCNC(=O)c1ccc(-c2cnc(N)c(OC(C)c3c(Cl)ccc(F)c3Cl)c2)cc1` [Example L-167], the inhibition at 0.05 µM was 66%.

For the compound `CC1CN(C(=O)c2ccc(-c3cnc(N)c(OCc4ccc(S(N)(=O)=O)cc4)c3)cc2)CC(C)N1` (stereo not drawn), the inhibition at 1 µM came to 16%.

Turning to `COCCN1CCN(C(=O)c2cnc(N)c(OCc3c(Cl)cccc3Cl)c2)CC1` [Example L-248], the inhibition at 1 pM (Table 6, library procedure 41) came out at 27%.

Regarding `Nc1ncc(C(=O)NCc2ccc(OC(F)(F)F)cc2)cc1OCc1c(Cl)cccc1Cl` [Example L-226], the inhibition at 1 pM (Table 6, library procedure 41) is 24%.

Regarding `CC(C)CN(C)C(=O)c1ccc(-c2cnc(N)c(OC(C)c3c(Cl)ccc(F)c3Cl)c2)cc1` [Example L-143], the inhibition at 0.05 µM stood at 59%.

On to `CCOC(=O)C1CCN(C(=O)c2ccc(COc3cc(-c4ccc(C(=O)N5CCC(N6CCCC6)CC5)cc4)cnc3N)cc2)CC1`, for which the inhibition at 1 pM (Table 7, library procedure 42) turned out to be 16%.

Take `CCN1CCCC(NC(=O)c2cnc(N)c(OCc3c(Cl)cccc3Cl)c2)C1` [Example L-312]: the inhibition at 1 pM (Table 6, library procedure 41) came to 19%.

As for `CCN(Cc1ccncc1)C(=O)c1ccc(-c2cnc(N)c(OC(C)c3c(Cl)ccc(F)c3Cl)c2)cc1` [Example L-41], the inhibition at 0.05 µM worked out at 84%.

Take `Nc1ncc(-c2ccc(C(=O)N3CCC(N4CCCC4)CC3)cc2)cc1OCc1nc2cccnc2[nH]1`: the inhibition at 1 pM (Table 7, library procedure 42) amounted to 17%.

Regarding `COCCNC(=O)c1ccc(-c2cnc(N)c(OC(C)c3c(Cl)ccc(F)c3Cl)c2)cc1` [Example L-79], the inhibition at 0.05 µM was 73%.

With `Nc1ncc(-c2ccc(C(=O)N3CCC(N4CCCC4)CC3)cc2)cc1OCc1ccc(C(=O)NCc2cccnc2)cc1`, the inhibition at 1 pM (Table 7, library procedure 42) came out at 15%.

As to `CCN1CCCC1CNC(=O)c1ccc(COc2cc(-c3ccc(C(=O)N4CCC(N5CCCC5)CC4)cc3)cnc2N)cc1` (stereo not drawn), where the note is “Table 7, library procedure 42”, the inhibition at 1 pM came to 18%.

For `Nc1ncc(-c2ccc(C(=O)N3CCC(N4CCCC4)CC3)cc2)cc1OCc1noc(-c2cccc(C(F)(F)F)c2)n1`, the inhibition at 1 pM (Table 7, library procedure 42) came out at 27%.

As to `CC(C)CCNC(=O)C1CC12CCN(C(=O)c1cnc(N)c(OCc3c(Cl)cccc3Cl)c1)CC2` [Example L-338], the inhibition at 1 pM (Table 6, library procedure 41) stood at 21%.

Regarding `CCc1ccc(COc2cc(-c3ccc(C(=O)N4CCC(N5CCCC5)CC4)cc3)cnc2N)nc1`, the inhibition at 1 pM (Table 7, library procedure 42) was 15%.

With `CCN(CC)C(=O)C1CCCN(C(=O)c2cnc(N)c(OCc3c(Cl)cccc3Cl)c2)C1` [Example L-203], under “Table 6, library procedure 41”, the inhibition at 1 pM turned out to be 33%.

For the compound `Nc1ncc(C(=O)N[C@@H]2CCC[C@H]2OCc2ccccc2)cc1OCc1c(Cl)cccc1Cl` [Example L-271], the inhibition at 1 pM (Table 6, library procedure 41) is 16%.

For the compound `Nc1ncc(-c2ccc(C(=O)N3CCC(N4CCCC4)CC3)cc2)cc1OCc1ccc(C(=O)NCCN2CCCC2)cc1`, where the note is “Table 7, library procedure 42”, the inhibition at 1 pM was 10%.

Turning to `CN(C)C1CCN(C(=O)c2cnc(N)c(OCc3c(Cl)cccc3Cl)c2)C1` [Example L-244], where the note is “Table 6, library procedure 41”, the inhibition at 1 pM came to 33%.

In the case of `CC1CN(C(=O)c2ccc(-c3cnc(N)c(OCc4ccc5ccccc5c4Br)c3)cc2)CC(C)N1` (stereo not drawn), the inhibition at 1 µM is 58%.

As to `CC(Oc1cc(-c2ccc(C(=O)NCCCN3CCOCC3)cc2)cnc1N)c1c(Cl)ccc(F)c1Cl` [Example L-2], the inhibition at 0.05 µM stood at 59%.

As for `Nc1ncc(C(=O)N2CCN(CCOCCO)CC2)cc1OCc1c(Cl)cccc1Cl` [Example L-202], the inhibition at 1 pM (Table 6, library procedure 41) was determined as 33%.

In the case of `COc1cccc(COc2cc(-c3ccc(C(=O)N4CCC(N5CCCC5)CC4)cc3)cnc2N)c1`, under “Table 7, library procedure 42”, the inhibition at 1 pM came to 15%.

`CC(C)CNC(=O)c1ccc(-c2cnc(N)c(OC(C)c3c(Cl)ccc(F)c3Cl)c2)cc1` [Example L-117]: the inhibition at 0.05 µM was 60%.
